Common to all, as to test: DRaCALA with […]-pyruvate and competition with cold pyruvate, membrane vesicles
Holding throughout (type): binding

The target in experiment [1] is T1, BtsS (Escherichia coli, UniProt P0AD14).
T1 construct: BtsS-6His in membrane vesicles of E. coli MG1655 ΔbtsSRΔypdABC

The target of experiment [2] is T2, BtsS (Escherichia coli, UniProt P0AD14, R72A).
T2 construct: BtsS-R72A-6His in membrane vesicles of E. coli MG1655 ΔbtsSRΔypdABC

The target in experiment [3] is T3, BtsS (Escherichia coli, UniProt P0AD14, R99A).
T3 construct: BtsS-R99A-6His in membrane vesicles of E. coli MG1655 ΔbtsSRΔypdABC
T3 sequence (P0AD14 whole entry R99A): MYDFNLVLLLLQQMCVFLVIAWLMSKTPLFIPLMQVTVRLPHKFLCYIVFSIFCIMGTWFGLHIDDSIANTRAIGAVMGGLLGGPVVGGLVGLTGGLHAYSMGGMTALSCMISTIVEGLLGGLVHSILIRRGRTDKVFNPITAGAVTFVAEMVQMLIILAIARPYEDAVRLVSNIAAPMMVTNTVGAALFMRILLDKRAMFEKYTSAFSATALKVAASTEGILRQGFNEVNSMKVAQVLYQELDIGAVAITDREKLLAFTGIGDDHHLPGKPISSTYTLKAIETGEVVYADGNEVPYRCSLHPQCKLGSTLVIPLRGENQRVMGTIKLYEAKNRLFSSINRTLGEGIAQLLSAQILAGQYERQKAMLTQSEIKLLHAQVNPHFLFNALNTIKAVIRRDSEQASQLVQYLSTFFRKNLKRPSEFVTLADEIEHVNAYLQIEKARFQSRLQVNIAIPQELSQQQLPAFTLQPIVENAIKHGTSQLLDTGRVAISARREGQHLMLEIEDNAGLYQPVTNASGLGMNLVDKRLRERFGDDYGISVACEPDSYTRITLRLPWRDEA

Experiment [4] deals with T4, BtsS (Escherichia coli, UniProt P0AD14, C110A).
T4 construct: BtsS-C110A-6His in membrane vesicles of E. coli MG1655 ΔbtsSRΔypdABC
T4 sequence (P0AD14 whole entry C110A): as the sequence (P0AD14 whole entry R99A) above, with A99R, C110A counted along it

Experiment [5] concerns the target T5, BtsS (Escherichia coli, UniProt P0AD14, S113A).
T5 construct: BtsS-S113A-6His in membrane vesicles of E. coli MG1655 ΔbtsSRΔypdABC

The text below walks through data of PMC10653868, “The LytS-type histidine kinase BtsS is a 7-transmembrane receptor that binds pyruvate” (mBio, 2023).

T1 sequence (P0AD14 whole entry): as the sequence (P0AD14 whole entry R99A) above, with A99R counted along it
T5 sequence (P0AD14 whole entry S113A): as the sequence (P0AD14 whole entry R99A) above, with A99R, S113A counted along it
T2 sequence (P0AD14 whole entry R72A): as the sequence (P0AD14 whole entry R99A) above, with R72A, A99R counted along it

In the case of `CC(=O)C(=O)O` [pyruvate], the Kd in experiment [1] turned out to be 67.3 ± 10.6 µM; in experiment [2] it was 107 ± 12.3 µM; in experiment [3], 245 ± 10.1 µM; in experiment [4] it was 375 ± 21.2 µM; in experiment [5], 284 ± 8 µM.
